Reference: patent US5439922A, “Piperidyl-substituted indoles for treating anxiety” (H. Lundbeck A/S, priority 1990, dated 1995)
“Also recorded” adds a separate entry of the source. Read-outs that look alike come from different tables or passages of the source.

Assays:
[1] = Catalepsy test (rat, vertical wire mesh, s.c.); conditions: sc
Excerpt: Evaluation of catalepsy was made according to Arnt (Eur. J. Pharmacol. 90, 47-55 (1983)). Catalepsy is an indicator of dopamine receptor blockade in vivo which corrolates to the clinical potency of the classical neuroleptics. However, catalepsy is also considered to indicate extrapyramidal side effects (Arnt, J. et al.; Neuropharrnacology 1981, 20, 1331-1334.
In this test test compound is given s.c. in different doses. The rat (170-240 g )is placed on a vertical wire mesh (mesh diameter 12 mm ). The rat is considered cataleptogenic if it remains immobile for more than 15 sec. The maximum number of rats showing catalepsy within the first 6 hours is recorded for each dose group. The results are recorded in fractions and an ED50 value is calculated by means of log-probit analysis.
The following corresponding 1-aryl-3-(1,2,3,6-tetrahydropyridyl)- or 1-aryl-3-(piperazinyl)indole derivatives which are analogues of Lu 23-174 and Compound No 12, respectively, were included in the test as comparing compounds:
A) 1-(4-Fluorophenyl)-3-[1-[2-(2-imidazolidinon-1-yl)ethyl]-1,2,3,6-tetrahydropyridin-4-yl]-5-trifluoromethyl-1H-indole
B) 5-Chloro-1-(4-fluorophenyl)-3-[1-[2-(2-imidazolidinon-1-yl)ethyl]-1,2,3,6- tetrahydro-4-pyridyl]-1H-indole
C) 5-Chloro-1-(4-fluorophenyl)-3-[4-[2-(2-imidazolidinon-1-yl)ethyl]-1-piperazinyl]-1H-indole

[2] = Inhibition of isolation induced aggression in mice; assay type: in vivo, mouse (male NMRI/BOM, SPF); conditions: for ED50: Mus musculus
Excerpt: This test is used to evaluate the ability of a test substance to inhibit isolation induced aggressive behaviour in mice and is considered to be a test model for anxiolytic effect. The method is a modified version of the method described by McMillen et al. in Drug Develop. Research 12, 53-62, 1988.
Male mice (NMRI/BOM,SPF) weighing 16-18 g were used. The mice were housed individually in macrolon cages for 3 weeks before training to attack an intruder mouse. The mice were trained daily for a period of 1-2 weeks until a satisfactory respons was obtained. During the first days the mice were trained against each other. When a satisfactory respons was obtained group-housed mice were used as intruders. The time elapsed until attack was recorded. The intruder mouse was removed as soon as an attack had occured or after 180 sec. After the training period 60-70 percent of the mice had latencies of less than 10 sec.
The mice were pretested before drug treatment. Only mice attacking within 25 sec. were used. The animals were treated with test substance or saline. The mice were tested 30 or 120 minutes later, respectively. Nonspecific motoric effects were also recorded. 8 mice were used per group.
The results were stated as fractions of mice with attack latencies greater than or equal to a threshold value. As threshold values were used 180 and 90 sec. ED50 values were calculated by log-probit analysis.
The results are given in the following table as ED50 values in μmol/kg. The known compounds diazepam, buspirone and ritanserin were included in the test for the purpose of comparison.

[3] = Light/dark discrimination test in rats; assay type: in vivo, rat (Wistar WU); conditions: rat, s.c.; observation 2h
Protocol: The test was carried out similarly to the test in mice described above, however modified in accodance with F. C. Colpaert et al., Psychopharmacology (1985) 86: 45-54. The test used Wistar WU rats.

[4] = Light/dark discrimination test in mice (two compartment activity box); assay type: in vivo, mouse (male albino BKW); conditions: mouse, i.p.
Protocol: This test was carried out in accordance with the method described in Costall et al. Br. J. Pharmacol. 90 275P (1987).
The test was conducted using a two compartment activity box in which the actions of anxiolytic compounds to reduce aversion against a brightly-lit environment may be readily detected. The box is designed as an open-top experimental box (45*27*27 cm) one third of which was partitioned from the rest, painted black and illuminated with red light. The remainder of the box was painted white and brightly illuminated (1000 W). The floor of each area was lined into squares. Behavioural changes were determined for each area from video recordings for periods of 40 min. Data obtained from dose groups of 5 animals (male albino BKW mice, 25-30 g ) were analysed using single factor analysis of variance, and Dunnett's t-test. Test compounds were given intrapentoneally 45 min before testing.
The results are given in the following Table 2 as minimum doses (mg/kg i.p.) tested showing effect (p<0.001). The behavioural change used were exploratory rearings and line crossings.
The known substances diazepam, and ondansetron were included in the test for comparison purposes.

[5] = 0.5 h, attack latency threshold 90 sec., 30 min pretreatment, read-out: ED50, threshold 90 sec., 30 min pretreatment
[6] = 0.5 h, attack latency threshold 180 sec., 30 min pretreatment, read-out: ED50, threshold 180 sec., 30 min pretreatment
[7] = 2 h, attack latency threshold 90 sec., 120 min pretreatment, read-out: ED50, threshold 90 sec., 120 min pretreatment
[8] = 2 h, attack latency threshold 180 sec., 120 min pretreatment, read-out: ED50, threshold 180 sec., 120 min pretreatment

O=C1NCCN1CCN1CC=C(c2cn(-c3ccc(F)cc3)c3ccc(C(F)(F)F)cc23)CC1 [A, 1-(4-Fluorophenyl)-3-[1-[2-(2-imidazolidinon-1-yl)ethyl]-1,2,3,6-tetrahydropyridin-4-yl]-5-trifluoromethyl-1H-indole, reference compound]
ED50 at 6 h ([1]; in vivo): 0.49 µmol/kg

O=C1NCCN1CCN1CC=C(c2cn(-c3ccc(F)cc3)c3ccc(Cl)cc23)CC1 [B, 5-Chloro-1-(4-fluorophenyl)-3-[1-[2-(2-imidazolidinon-1-yl)ethyl]-1,2,3,6-tetrahydro-4-pyridyl]-1H-indole, reference compound]
ED50 at 6 h ([1]; in vivo): 2.2 µmol/kg

O=C1CC2(CCCC2)CC(=O)N1CCCCN1CCN(c2ncccn2)CC1 [Buspirone]
ED50 [2, 5]: 9.6 µmol/kg | ED50 [2, 6]: 5.4 µmol/kg

O=C1NCCN1CCN1CCN(c2cn(-c3ccc(F)cc3)c3ccc(Cl)cc23)CC1 [C, 5-Chloro-1-(4-fluorophenyl)-3-[4-[2-(2-imidazolidinon-1-yl)ethyl]-1-piperazinyl]-1H-indole, reference compound]
ED50 at 6 h ([1]; rat): 4.5 µmol/kg

O=C1OCCN1CCN1CCC(c2cn(-c3ccc(F)cc3)c3ccc(Cl)cc23)CC1 [Compound 2, 5-chloro-1-(4-fluorophenyl)-3-[1-[2-(2-oxazolidinon-1-yl)ethyl]-4-piperidyl]-1H-indole]
ED50 at 6 h ([1]; rat): > 18 µmol/kg

CN1CCN(CCN2CCC(c3cn(-c4ccc(F)cc4)c4ccc(Cl)cc34)CC2)C1=O [Compound 3, 5-chloro-1-(4-fluorophenyl)-3-[1-[2-(3-methyl-2-imidazolidinon-1-yl)ethyl]-4-piperidyl]1H-indole]
ED50 at 6 h ([1]; in vivo): 31 µmol/kg

O=C1CCCN1CCN1CCC(c2cn(-c3ccc(F)cc3)c3ccc(Cl)cc23)CC1 [Compound 4, 5-chloro-1-(4-fluorophenyl)-3-[1-[2-(2-pyrrolidinon-1-yl)ethyl]-4-piperidyl]-1H-indole]
ED50 at 6 h ([1]; in vivo): 23 µmol/kg

O=C1NCCN1CCN1CCC(c2cn(-c3ccc(F)cc3)c3ccc(C(F)(F)F)cc23)CC1 [Compound 12, 1-(4-fluorophenyl)-3-[1-[2-(2-imidazolidinon-1-yl)ethyl]-4-piperidyl]-5-trifluomethyl-1H-indole]
ED50 at 6 h ([1]; rat): 38 µmol/kg

CC(C)N1CCN(CCN2CCC(c3cn(-c4ccc(F)cc4)c4ccc(Cl)cc34)CC2)C1=O [Compound 14, 5-chloro-1-(4-fluorophenyl)-3-[1-[2-[3-(2-propyl)-2-imidazolidinon-1-yl]ethyl]-4-piperidyl]-1H-indole]
ED50 at 6 h ([1]; rat): > 69 µmol/kg

O=C1NCCN1CCN1CCC(c2cn(-c3ccc(F)cc3)c3ccc(F)cc23)CC1 [Compound 16, 5-fluoro-1-(4-fluorophenyl)-3-[1-[2-(2-imidazolidinon-1-yl)ethyl]-4-piperidyl]-1H-indole]
ED50 [2, 7]: 2.1 µmol/kg | ED50 [2, 8]: 1.6 µmol/kg | ED50 at 6 h ([1]; rat): > 78 µmol/kg

Cc1ccc2c(c1)c(C1CCN(CCN3CCNC3=O)CC1)cn2-c1ccc(F)cc1 [Compound 24, 1-(4-fluorophenyl)-3-[1-[2-(2-imidazolidinon-1-yl)ethyl]-4-piperidyl]-5-methyl-1H-indole]
ED50 [2, 7]: 3.2 µmol/kg | ED50 [2, 8]: 2.5 µmol/kg | ED50 at 6 h ([1]; rat): > 95 µmol/kg

CN1C(=O)CN=C(c2ccccc2)c2cc(Cl)ccc21 [Diazepam]
ED50 ([2]; 0.5 h, read-out: ED50, threshold 90 sec., 30 min pretreatment): 26 µmol/kg | ED50 ([2]; 0.5 h, read-out: ED50, threshold 180 sec., 30 min pretreatment): 15 µmol/kg

O=C1NCCN1CCN1CCC(c2cn(-c3ccc(F)cc3)c3ccccc23)CC1 [Lu 23-086, 1-(4-fluorophenyl)-3-[1-[2-(2-imidazolidinon-1-yl)ethyl]-4-piperidyl]-1H-indole]
ED50 [2, 7]: 1.9 µmol/kg | ED50 [2, 8]: 1.7 µmol/kg

O=C1NCCN1CCN1CCC(c2cn(-c3ccc(F)cc3)c3ccc(Cl)cc23)CC1 [Lu 23-174, 5-chloro-1-(4-fluorophenyl)-3-[1-[2-(2-imidazolidinon-1-yl)ethyl]-4-piperidyl]-1H-indole]
ED50 [2, 5]: 4.4 µmol/kg | ED50 [2, 6]: 3.2 µmol/kg | Effect in light/dark discrimination test in rats (active dose in words) [3]: showed effect in nano molar doses/kg | ED50 at 6 h ([1]; rat): > 98 µmol/kg

Cc1nc2sccn2c(=O)c1CCN1CCC(=C(c2ccc(F)cc2)c2ccc(F)cc2)CC1 [Ritanserin]
Effect in light/dark discrimination test in mice [4]: did not show effect; also recorded: inactive | ED50 [2, 5]: > 21 µmol/kg | ED50 [2, 6]: > 21 µmol/kg | ED50 [2, 7]: > 10 µmol/kg | ED50 [2, 8]: > 10 µmol/kg | Effect in the aggression test ([2]; mouse, in vivo): showed no effect | Effect in light/dark discrimination test in rats (active dose in words) [3]: only active in μmolar doses/kg
